In patent US20150328245A1, “Agents for Eliminating Tumour-Initiating Cells” (priority 2012, published 2015):
Values joined by “and” are separate entries in the source; they are usually repeats but may differ in a detail not shown here. Identical values can stand only once.

What was measured:
Format in all cases: cell-based
[1] = tested on: DU145; assay: In vitro colorimetric cell death assay (MTT); conditions: DU145, MTT, 48 hours; read-out: IC 50
Description: (§1) It's an in vitro colorimetric assay for assessing cell viability where the cells are grown in Two-dimensional surface.
(§2) An exemplary procedure for the assay follows. Cancer cells and normal cells were plated in a 96 well plate as per predetermined plating efficiency. The plate was incubated for 24 hours in a 5% CO2 atmosphere at 37 degrees Celsius, a range of concentrations of the compounds I-1, I-2 and I-3 as well as cisplatin (known chemotherapeutic agents) were added to the separate wells, the plate was incubated further for 48 hours in a 5% CO2 atmosphere, the plate was centrifuged twice at 3000 rpm for 3 minutes, the supernatant fluid was discarded, 100 uL of 0.5 mg/mL MTT solution was added and the plate was incubated for 4 hours in a 5% CO2 atmosphere at 37 degrees Celsius. The plate was then centrifuged twice at 3000 rpm for 3 minutes, supernatant, was aspirated very carefully, 200 uL DMSO was added to each well to solubilize MTT crystals and mixed well by shaking the plate, the plate was incubated for 10 minutes in a 5% CO2 atmosphere at 37 degrees Celsius, the plate placed on the shaker of an ELISA plate reader and the absorbance at 570 nm was measured, then the percentage of viable cells remaining was calculated by first subtracting the background absorbance then comparing to the absorbance of a non-drug-treated cell sample, and the results were plotted on a graph to determine the IC50 for the compounds and cisplatin.

[2] = tested on: L 929; assay: In vitro colorimetric cell death assay (MTT); conditions: L 929, MTT, 48 hours; read-out: IC 50
Description: as §1, §2

[3] = tested on: LNCaP; assay: In vitro colorimetric cell death assay (MTT); conditions: 48 hours
Description: as §1, §2

[4] = tested on: MCF-7; assay: In vitro colorimetric cell death assay (MTT); conditions: MCF-7, MTT, 48 hours
Description: as §1, §2

[5] = tested on: MCF10A (normal breast cell line); assay: In vitro colorimetric cell death assay (MTT); conditions: 48 hours, read-out: IC 50
Description: as §1, §2

[6] = tested on: MDAMB231; assay: In vitro colorimetric cell death assay (MTT); conditions: 48 hours
Description: as §1, §2

[7] = tested on: PC3; assay: In vitro colorimetric cell death assay (MTT); conditions: 48 hours
Description: as §1, §2

[8] = tested on: T47D; assay: In vitro colorimetric cell death assay (MTT); conditions: 48 hours
Description: as §1, §2

[9] = tested on: DU145; assay: In vitro soft agar colony forming growth assay; conditions: one week
Description: (§3) The Soft Agar Assay for Colony Formation is considered the most stringent assay for detecting malignant transformation of cells. In this assay the cells are cultured in medium with low percentage of agar.
(§4) An exemplary procedure for the assay follows.

[10] = tested on: HeLa; assay: In vitro soft agar colony forming growth assay; conditions: soft agar, one week, read-out: IC 50
Description: as §3, §4

[11] = tested on: L929; assay: In vitro soft agar colony forming growth assay; conditions: L929, soft agar, one week; read-out: IC 50
Description: as §3, §4

[12] = tested on: LNCaP; assay: In vitro soft agar colony forming growth assay; conditions: one week
Description: as §3, §4

[13] = tested on: MCF-7; assay: In vitro soft agar colony forming growth assay; conditions: MCF-7, soft agar, one week
Description: as §3, §4

[14] = tested on: PC3; assay: In vitro soft agar colony forming growth assay; conditions: one week
Description: as §3, §4

[15] = tested on: T47D; assay: In vitro soft agar colony forming growth assay; conditions: one week
Description: as §3, §4

[16] = tested on: breast cancer cells MCF-7; assay: In vitro 3D primary sphere forming stem cell assay
Description: (§5) This assay measures the ability of cancer stem cells to form spheres in a serum free media where the spheres are in a suspended form. Through this assay we evaluated the potency of the compounds of the invention to kill cancer stem cells in comparison with the known chemotherapeutic agent Cisplatin.
(§6) An exemplary procedure for the assay follows. Cells were grown in three dimensions on a plastic substrate, harvested in suspension in serum-free media, then the cells in the sample were trypsinized and a single cell suspension was formed by passing through a cell strainer. The cells were diluted according to the predetermined plating efficiency for the cell line being studied by suspending the cells in stem cell culture medium. 100 uL of this suspension was added into each well of a 96 well suspension plate, and the plate was incubated at 37 degrees Celsius in 5% CO2 atmosphere for 24 hours, then 2 uL of appropriate concentrations of the compounds of the invention and cisplatin were added into each respective well along with 100 uL of stem cell culture medium, and the plates were incubated at 37 degrees Celsius under 5% CO2 atmosphere for 72 hours. 2.5 uL of the compounds of the invention and cisplatin were added to each respective well along with 50 uL of stem cell culture medium and then the plates were incubated at 37 degrees Celsius under 5% CO2 atmosphere for 72 hours. 3 uL of appropriate concentrations of the compounds of the invention and cisplatin were added to each respective well along with 50 uL of stem cell culture medium and then the plates were incubated at 37 degrees Celsius under 5% CO2 atmosphere for 72 hours, then the spheres formed were observed under a microscope then counted and scored by size.
(§7) Results of the in vitro 3D sphere forming stem cell assay are set forth in a tabular manner. The number in each box is the total number of spheres formed in the presence of either cisplatin or compound I-2 or compound I-3 at each drug concentration. GC refers to a growth control performed in the absence of drug or solvent (DMSO). GCD refers to a growth control performed in the absence of drug, but in the presence of DMSO.

[17] = tested on: breast cancer cells MDA MB 231; assay: In vitro 3D primary sphere forming stem cell assay
Description: as §5, §6, §7

[18] = tested on: breast cancer cells T47D; assay: In vitro 3D primary sphere forming stem cell assay
Description: as §5, §6, §7

[19] = tested on: prostate cancer cells DU145; assay: In vitro 3D primary sphere forming stem cell assay
Description: as §5, §6, §7

[20] = tested on: prostate cancer cells LNCaP; assay: In vitro 3D primary sphere forming stem cell assay
Description: as §5, §6, §7

[21] = tested on: prostate cancer cells PC3; assay: In vitro 3D primary sphere forming stem cell assay
Description: as §5, §6, §7

Question: Which IC50 [1] does the source give for `N.N.[Cl][Pt][Cl]` [Cisplatin, cisplatin, reference compound] here?
Answer: The IC50 was 56.2 µM.

Question: What about the IC50 [2] of the same molecule?
Answer: The IC50 was 46.7 µM.

Question: What about the IC50 [3] of the same molecule?
Answer: Its IC50 is 64.6 µM.

Question: What about the IC50 [4] of the same molecule?
Answer: Its IC50 is 4.75 µM.

Question: What about the IC50 [5] of the same molecule?
Answer: Its IC50 is 36.3 µM.

Question: And the IC50 [6]?
Answer: Its IC50 is 82.3 µM.

Question: And the IC50 [7]?
Answer: Its IC50 is 40.1 µM.

Question: What about the IC50 [8] of the same molecule?
Answer: The IC50 was 51.3 µM.

Question: What about the IC50 [9] of the same molecule?
Answer: The IC50 was 56.2 µM.

Question: What about the IC50 [10] of the same molecule?
Answer: Its IC50 is 39.4 µM.

Question: And the IC50 [11]?
Answer: The IC50 was 8.7 µM.

Question: What about the IC50 [12] of the same molecule?
Answer: The IC50 was 64.6 µM.

Question: And the IC50 [13]?
Answer: Its IC50 is 37.1 µM.

Question: And the IC50 [14]?
Answer: The IC50 was 40.1 µM.

Question: What about the IC50 [15] of the same molecule?
Answer: The IC50 was 51.3 µM.

Question: What about the “# of 3D Primary Spheres Formed of Cells MCF-7 (±SD)” value ([16]; final conc. 0.125 μM) of the same molecule?
Answer: The value was 76(±5).

Question: What about the “# of 3D Primary Spheres Formed of Cells MCF-7 (±SD)” value ([16]; final conc. 1.25 μM) of the same molecule?
Answer: Its value is 77(±5).

Question: And the “# of 3D Primary Spheres Formed of Cells MCF-7 (±SD)” value ([16]; final conc. 12.5 μM)?
Answer: Its value is 68(±7).

Question: And the “# of 3D Primary Spheres Formed of Cells MCF-7 (±SD)” value ([16]; final conc. 125 μM)?
Answer: Its value is 61(±7).

Question: What about the “# of 3D Primary Spheres Formed of Cells MCF-7 (±SD)” value ([16]; final conc. 1250 μM) of the same molecule?
Answer: Its value is 37(±8).

Question: What about the “# of 3D Primary Spheres Formed of Cells MDA MB231 (±SD)” value ([17]; final conc. 0.125 μM) of the same molecule?
Answer: Its value is 124(±7) and 87(±5).

Question: And the “# of 3D Primary Spheres Formed of Cells MDA MB231 (±SD)” value ([17]; final conc. 1.25 μM)?
Answer: Its value is 113(±11) and 79(±2).

Question: What about the “# of 3D Primary Spheres Formed of Cells MDA MB231 (±SD)” value ([17]; final conc. 12.5 μM) of the same molecule?
Answer: Its value is 112(±18) and 78(±5).

Question: And the “# of 3D Primary Spheres Formed of Cells T47D (±SD)” value ([18]; final conc. 0.125 μM)?
Answer: Its value is 105(±10).

Question: And the “# of 3D Primary Spheres Formed of Cells T47D (±SD)” value ([18]; final conc. 1.25 μM)?
Answer: Its value is 100(±7).

Question: And the “# of 3D Primary Spheres Formed of Cells T47D (±SD)” value ([18]; final conc. 12.5 μM)?
Answer: The value was 76(±25).

Question: What about the “# of 3D Primary Spheres Formed of Cells T47D (±SD)” value ([18]; final conc. 125 μM) of the same molecule?
Answer: Its value is 51(±5).

Question: And the “# of 3D Primary Spheres Formed of Cells T47D (±SD)” value ([18]; final conc. 1250 μM)?
Answer: Its value is 0(±0).

Question: And the “# of 3D Primary Spheres Formed of Cells DU145 (±SD)” value ([19]; final conc. 0.125 μM)?
Answer: Its value is 84(±4).

Question: And the “# of 3D Primary Spheres Formed of Cells DU145 (±SD)” value ([19]; final conc. 1.25 μM)?
Answer: Its value is 70(±7).

Question: What about the “# of 3D Primary Spheres Formed of Cells DU145 (±SD)” value ([19]; final conc. 12.5 μM) of the same molecule?
Answer: Its value is 48(±6).

Question: And the “# of 3D Primary Spheres Formed of Cells DU145 (±SD)” value ([19]; final conc. 125 μM)?
Answer: Its value is 35(±4).

Question: And the “# of 3D Primary Spheres Formed of Cells DU145 (±SD)” value ([19]; final conc. 1250 μM)?
Answer: The value was 11(±3).

Question: And the “# of 3D Primary Spheres Formed of Cells LNCaP (±SD)” value ([20]; final conc. 0.125 μM)?
Answer: Its value is 142(±12).

Question: And the “# of 3D Primary Spheres Formed of Cells LNCaP (±SD)” value ([20]; final conc. 1.25 μM)?
Answer: The value was 144(±8).

Question: What about the “# of 3D Primary Spheres Formed of Cells LNCaP (±SD)” value ([20]; final conc. 12.5 μM) of the same molecule?
Answer: Its value is 108(±10).

Question: And the “# of 3D Primary Spheres Formed of Cells LNCaP (±SD)” value ([20]; final conc. 125 μM)?
Answer: The value was 54(±7).

Question: And the “# of 3D Primary Spheres Formed of Cells LNCaP (±SD)” value ([20]; final conc. 1250 μM)?
Answer: Its value is 9(±2).

Question: What about the “# of 3D Primary Spheres Formed of Cells PC3 (±SD)” value ([21]; final conc. 0.125 μM) of the same molecule?
Answer: Its value is 125(±7).

Question: And the “# of 3D Primary Spheres Formed of Cells PC3 (±SD)” value ([21]; final conc. 1.25 μM)?
Answer: The value was 109(±12).

Question: What about the “# of 3D Primary Spheres Formed of Cells PC3 (±SD)” value ([21]; final conc. 12.5 μM) of the same molecule?
Answer: The value was 80(±6).

Question: And the “# of 3D Primary Spheres Formed of Cells PC3 (±SD)” value ([21]; final conc. 125 μM)?
Answer: The value was 67(±5).

Question: What about the “# of 3D Primary Spheres Formed of Cells PC3 (±SD)” value ([21]; final conc. 1250 μM) of the same molecule?
Answer: Its value is 55(±5).
